Results from publication PMC5723147, “Effective Antimicrobial Activity of Plectasin-Derived Antimicrobial Peptides against Staphylococcus aureus Infection in Mammary Glands” (Frontiers in Microbiology, 2017).
In brackets after ≈: the same amount, converted by molar mass.

Legend:
[1] = system: Staphylococcus aureus E48; assay: Minimum inhibitory concentration (broth microdilution, Mueller-Hinton broth); type: cell-based; details: 5 × 10^5 CFU/mL, 37°C, 16-20 h, three replicates, read-out: MIC against S. aureus E48
Description: Staphylococcus aureus E48, a clinical mastitis isolate, had been used to induce mouse mastitis model ([Wang et al., 2017]). […] It was used as a positive control in this study and was purchased from Sigma–Aldrich. The AMPs were prepared according to a previously described protocol ([Zhang et al., 2015]). The minimum inhibitory concentrations (MICs) were used to evaluate the antibacterial activities of antimicrobial agents ([Wiegand et al., 2008]). Briefly, S. aureus were grown to the log-phase at 37°C in the Mueller–Hinton broth, and diluted to 5 × 10^5 CFU/mL with the fresh medium. A total of 180 μL of cell suspension and 20 μL of serially twofold diluted peptide were added to each well, and the plates were incubated at 37°C for 16–20 h. The final concentration of antimicrobial agents was prepared with gradients of 64, 32, 16, 8, 4, 2, 1, 0.5, 0.25, 0.125, and 0.0625 μg/mL. Three replicates were examined for each concentration. The MICs refer to the lowest concentration where no growth was visible after 16–20 h of incubation.

[2] = system: S. aureus E48 in mammary glands; assay: Mouse model of S. aureus-induced mastitis; type: in vivo, BALB/c mice
Description: The animal protocols used in this work were approved by Institutional Animal Care and Use Committee of Northwest A&F University. The 6- to 8-week-old specific-pathogen-free BALB/c mice were purchased from the Experimental Animal Center of the Medical College of Xi’an Jiao Tong University. […] The lactating mice were challenged with S. aureus E48 as described earlier ([Schmelcher et al., 2015]). The pentobarbital sodium (1.4 mg/20 g bodyweight) was used for anesthesia of the lactating mice by intraperitoneal injection. The distal end of the teat L4 (on the left) and R4 (on the right) was removed (snipped) by a small cut. These L4 and R4 glands constitute the fourth pair found from head to tail. For all groups except for the snipped only group, glands were injected with approximately 10^4 CFU S. aureus in 50 μL PBS. At 45 min after S. aureus inoculation, the challenged glands were injected with 100 μg AMPs in 20 μL or 20 μL of PBS, depending on the treatment. The mice were euthanized 24 h after the S. aureus inoculation, and mammary glands were aseptically collected and weighed. Five mice (10 mammary glands) were used for each group. Seven mammary glands from each treatment were sampled and homogenized in PBS (100 mg/200 μL). Serial dilution plating on Baird-Parker agar plates was done to determine intramammary S. aureus. A part of the homogenate was centrifuged, and the supernatant was used for tumor necrosis factor alpha (TNF-α) and interleukin 6 (IL-6) assays, using the mouse TNF-α and IL-6 ELISA kits (Shanghai Bangyi Biotechnology). The tissue from three mammary glands from each treatment was fixed with 10% buffered formalin for histopathological analyses (HE staining).

[3] = 100 μg intramammary, 24 h post-infection, ELISA, P < 0.05

**Q.** Which results are given for CN(C)[C@@H]1C(O)=C(C(N)=O)C(=O)[C@@]2(O)C(O)=C3C(=O)c4c(O)cccc4[C@@](C)(O)[C@H]3C[C@@H]12 [tetracycline, Tetracycline]?
**A.** MIC [1]: 1 µg/mL (≈ 2.25 µM); Reduction of S. aureus numbers in mammary glands compared to PBS control ([2]; 100 μg intramammary 45 min after ~10^4 CFU inoculation, 24 h after inoculation): 1.48 log10 units; S. aureus-induced inflammatory cell infiltration in mammary tissue (HE staining) ([2]; 100 μg intramammary, 24 h): significantly reduced; Intramammary IL-6 concentration in comparison with buffer control [2, 3]: significantly reduced; Intramammary TNF-α concentration in comparison with buffer control [2, 3]: significantly reduced
